Source: publication PMC11501026, “L-Arginine and asymmetric dimethylarginine (ADMA) transport across the mouse blood-brain and blood-CSF barriers: Evidence of saturable transport at both interfaces and CNS to blood efflux” (PLOS ONE, 2024)
Structures can show the parent of a compound that is named as a salt. Where two headings read alike, the source gives them in different places.

Legend:
[1] = self-inhibition, in situ perfusion: [^3H]-ADMA with 100 μM unlabelled ADMA; assay type: in vivo, mouse; details: male, BALB/c, mouse, other: in situ brain perfusion, with unlabelled ADMA 100 µM, 10 mins, Balb/c ♂, 5ml/min
[2] = system: human dermal microvascular endothelial cells; details: cited from earlier work

Kp at 10 min, 62.5 nM ([1]; caudate nucleus, Difference (ADMA minus Sucrose), caudate nucleus, + 100uM un-labelled ADMA, mean): 0.0707
Kp at 10 min, 62.5 nM ([1]; caudate nucleus, [3H] ADMA + [14C] Sucrose + 100uM un-labelled ADMA, mean, read-out: uptake into caudate nucleus): 0.102
Kp at 10 min, 62.5 nM ([1]; choroid plexus, Difference (ADMA minus Sucrose), choroid plexus, + 100uM un-labelled ADMA, individual mice): 0.47
Kp at 10 min, 62.5 nM ([1]; choroid plexus, Difference (ADMA minus Sucrose), choroid plexus, + 100uM un-labelled ADMA, mean): 0.458
Kp at 10 min, 62.5 nM ([1]; choroid plexus, [3H] ADMA + [14C] Sucrose + 100uM un-labelled ADMA, individual mice, read-out: uptake into choroid plexus): 0.617
Kp at 10 min, 62.5 nM ([1]; choroid plexus, [3H] ADMA + [14C] Sucrose + 100uM un-labelled ADMA, mean, read-out: uptake into choroid plexus): 0.627
Kp at 10 min, 62.5 nM ([1]; frontal cortex, Difference (ADMA minus Sucrose), frontal cortex, + 100uM un-labelled ADMA, mean): 0.0696
Kp at 10 min, 62.5 nM ([1]; frontal cortex, [3H] ADMA + [14C] Sucrose + 100uM un-labelled ADMA, mean, read-out: uptake into frontal cortex): 0.101
Kp at 10 min, 62.5 nM ([1]; hippocampus, Difference (ADMA minus Sucrose), hippocampus, + 100uM un-labelled ADMA, mean): 0.056
Kp at 10 min, 62.5 nM ([1]; hippocampus, [3H] ADMA + [14C] Sucrose + 100uM un-labelled ADMA, mean, read-out: uptake into hippocampus): 0.0817
Kp at 10 min, 62.5 nM ([1]; occipital cortex, Difference (ADMA minus Sucrose), occipital cortex, + 100uM un-labelled ADMA, individual mice): 0.0613
Kp at 10 min, 62.5 nM ([1]; occipital cortex, Difference (ADMA minus Sucrose), occipital cortex, + 100uM un-labelled ADMA, mean): 0.0767
Kp at 10 min, 62.5 nM ([1]; occipital cortex, [3H] ADMA + [14C] Sucrose + 100uM un-labelled ADMA, individual mice, read-out: uptake into occipital cortex): 0.0898
Kp at 10 min, 62.5 nM ([1]; occipital cortex, [3H] ADMA + [14C] Sucrose + 100uM un-labelled ADMA, mean, read-out: uptake into occipital cortex): 0.107
Kp at 10 min, 62.5 nM ([1]; pineal gland, Difference (ADMA minus Sucrose), pineal gland, + 100uM un-labelled ADMA, mean): 3.33
Kp at 10 min, 62.5 nM ([1]; pineal gland, [3H] ADMA + [14C] Sucrose + 100uM un-labelled ADMA, mean, read-out: uptake into pineal gland): 3.5
Compound: CN(C)C(N)=NCCC[C@H](N)C(=O)O [ADMA, N^G,N^G-dimethylarginine dihydrochloride]
effect on [^3H]-arginine transport ([2]; 100 μM unlabelled ADMA): significant inhibitory effect
effect on [^3H]-arginine transport ([2]; 2.5–10 μM ADMA): did not affect
